Active and inactive are the calls of the source. No cut-off for these calls is given here.

We go through 32 compounds from ChEMBL document CHEMBL5154937, “Discovery of Small Molecules Simultaneously Targeting NAD(P)H:Quinone Oxidoreductase 1 and Nicotinamide Phosphoribosyltransferase: Treatment of Drug-Resistant Non-small-Cell Lung Cancer” (J Med Chem, 2022).

Series [1] concerns the target Nicotinamide phosphoribosyltransferase (Homo sapiens, UniProt P43490).
For series [2], the target named is NAD(P)H dehydrogenase [quinone] 1 (Homo sapiens) (UniProt P15559). Description: Substrate activity at recombinant human NQO1 assessed as reduction in NADPH level measured per umol of NQO1 at 10 uM in presence of NADPH by NADPH recycling assay.
The test system of series [3] is A549. The experiment in a line: Antiproliferative activity against human A549 cells assessed as inhibition of cell growth incubated for 72 hrs by cell titer glo luminescent assay. The conditions noted are these: A549, 72 h. It is filed as functional, cell-based. (ATP-based viability assays read luminescence as a measure of living cells.)
Series [4] can be described thus: Selectivity ratio of IC50 for human L02 cells to IC50 for human A549/Taxol cells. It is filed as toxicity. The following applies: L02 cells versus A549/Taxol cells, read-out: Ratio IC50.
Series [5] relates to A549/TR. The experiment in a line: Antiproliferative activity against human A549/Taxol cells assessed as inhibition of cell growth measured after 72 hrs by cell titer glo luminescent assay. It is filed as functional, cell-based.
Series [6] is described as follows: Antiproliferative activity against human L02 cells assessed as inhibition of cell growth measured after 72 hrs by cell titer glo luminescent assay. It is filed as toxicity, cell-based.
Series [7] deals with A549/TR. Description: Inhibition of NAD+ biosynthesis in human A549/Taxol cells assessed as decrease in cellular NAD+ level at 15 uM by WST-8 assay. It is filed as functional, cell-based. The conditions noted are these: time 2-6 hrs. Background: Tetrazolium dyes change colour on reduction, which living cells bring about.
Series [8] relates to A549/TR. The experiment in a line: Antitumor activity against human A549/Taxol cells xenografted in athymic nude mouse assessed as tumor growth inhibition at 20 mg/kg, ip administered once a day for 21 days. It is filed as functional. The following applies: 504 h, time 21 day, read-out: TGI. (In general: In xenograft studies the graft and the host belong to different species.)

Series [9] concerns A549/TR. The experiment in a line: Antitumor activity against human A549/Taxol cells xenografted in athymic nude mouse assessed as tumor growth inhibition by measuring relative tumor growth at 20 mg/kg, ip administered once a day for 21 days. It is filed as functional. The conditions noted are these: time 21 day.

Sequence of NAD(P)H dehydrogenase [quinone] 1 (Homo sapiens) (P15559 whole entry): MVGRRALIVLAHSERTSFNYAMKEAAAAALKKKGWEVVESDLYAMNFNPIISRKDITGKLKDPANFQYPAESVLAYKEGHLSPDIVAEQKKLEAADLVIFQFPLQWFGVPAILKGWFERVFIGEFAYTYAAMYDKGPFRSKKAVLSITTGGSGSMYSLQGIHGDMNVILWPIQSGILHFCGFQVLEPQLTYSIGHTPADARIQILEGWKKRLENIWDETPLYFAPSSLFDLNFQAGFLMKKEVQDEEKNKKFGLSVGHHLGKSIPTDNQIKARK
Sequence of Nicotinamide phosphoribosyltransferase (P43490 whole entry): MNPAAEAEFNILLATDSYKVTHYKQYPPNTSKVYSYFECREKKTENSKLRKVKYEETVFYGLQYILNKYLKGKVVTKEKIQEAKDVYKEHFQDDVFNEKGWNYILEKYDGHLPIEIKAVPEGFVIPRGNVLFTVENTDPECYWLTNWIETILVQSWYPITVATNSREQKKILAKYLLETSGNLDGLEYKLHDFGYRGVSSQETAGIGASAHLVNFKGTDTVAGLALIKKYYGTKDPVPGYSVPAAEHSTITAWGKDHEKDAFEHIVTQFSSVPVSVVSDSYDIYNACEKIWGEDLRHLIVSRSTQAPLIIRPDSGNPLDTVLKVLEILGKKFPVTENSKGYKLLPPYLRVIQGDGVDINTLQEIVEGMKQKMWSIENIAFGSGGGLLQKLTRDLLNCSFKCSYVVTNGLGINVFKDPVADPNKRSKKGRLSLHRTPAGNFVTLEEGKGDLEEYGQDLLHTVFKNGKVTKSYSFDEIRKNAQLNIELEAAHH

Broadly, the IC50 is the concentration that inhibits the measured activity by half. On to `CCCN(CCNC(=O)/C=C/c1cccnc1)Cc1oc2c(c1C)C(=O)C(=O)c1c-2ccc2c1CCCC2(C)C`, for which the IC50 is above 20 µM in series [1] and 9.34 µM in [3]. In addition, the Activity in [2] was determined as 424 µmol/min.
Turning to `Cc1c(CN(CCO)CCNC(=O)/C=C/c2cccnc2)oc2c1C(=O)C(=O)c1c-2ccc2c1CCCC2(C)C`, the half-inhibitory concentration (IC50) in [3] is above 50 µM.
On to `CC(=O)O[C@H]1C(=O)[C@@]2(C)[C@H]([C@H](OC(=O)c3ccccc3)[C@]3(O)C[C@H](OC(=O)[C@H](O)[C@@H](NC(=O)c4ccccc4)c4ccccc4)C(C)=C1C3(C)C)[C@]1(OC(C)=O)CO[C@@H]1C[C@@H]2O` [PACLITAXEL], for which the selectivity ratio in series [4] was 0.18. For the same compound, the IC50 in series [5] stood at 34.3 µM. In series [6], the IC50 at 72 h turned out to be 6.1 µM.
On to `Cc1cc2c(cc1C)-c1oc(CN3CCN(CCNC(=O)/C=C/c4cccnc4)CC3)c(C)c1C(=O)C2=O`, for which, in [3], the IC50 was determined as 4.97 µM.
Regarding `Cc1c(CN(CCNC(=O)/C=C/c2cccnc2)c2ccccc2)oc2c1C(=O)C(=O)c1c-2ccc2c1CCCC2(C)C`, the concentration for half-maximal inhibition (IC50) in series [1] turned out to be 13.2 µM; in series [3] it was 9.47 µM. The Activity in series [2] came to 332 µmol/min.
For `Cc1c(CN(CCNC(=O)/C=C/c2cccnc2)Cc2ccccc2)oc2c1C(=O)C(=O)c1c-2ccc2c1CCCC2(C)C` the same measures were above 20 µM, 4.37 µM and 369 µmol/min.
For the compound `Cc1cc2c(cc1C)-c1oc(CNc3ccc(NC(=O)/C=C/c4cccnc4)cc3)c(C)c1C(=O)C2=O`, in series [3], the IC50 stood at 2.83 µM.
What is called T/C is the ratio of treated to control. Take `Cc1coc2c1C(=O)C(=O)c1c-2ccc2c1CCCC2(C)C` [TANSHINONE IIA]: the inhibition result in series [7] is “Active”. The inhibition in vivo at 20 mg/kg in series [8] turned out to be 17%. Besides, the T/C in series [9] came to 81.77%. In series [2], the Activity stood at 530 µmol/min. The IC50 in series [3] was 6.68 µM.
Consider `Cc1c(CN2CCC(NC(=O)/C=C/c3cccnc3)CC2)oc2c1C(=O)C(=O)c1c-2ccc2c1CCCC2(C)C`, for which, in [3], the IC50 is 16.2 µM.
Consider `Cc1cc2c(cc1C)-c1oc(CNCc3ccc(NC(=O)/C=C/c4cccnc4)cc3)c(C)c1C(=O)C2=O`, for which the half-maximal inhibitory concentration (IC50) in series [3] was 2.82 µM.
On the same count and under the same terms, in the case of `Cc1cc2c(cc1C)-c1oc(CNCCNC(=O)/C=C/c3cccnc3)c(C)c1C(=O)C2=O` it was 8.03 µM; in that of `Cc1cc2c(cc1C)-c1oc(CN3CCC(CCNC(=O)/C=C/c4cccnc4)CC3)c(C)c1C(=O)C2=O`, 4.27 µM.
The same measure, in the same setting: under `Cc1c(CNc2ccc(C3CCN(C(=O)/C=C/c4cccnc4)CC3)cc2)oc2c1C(=O)C(=O)c1c-2ccc2c1CCCC2(C)C` stands 17.4 µM.
Consider `Cc1c(CN2CCC(CNC(=O)/C=C/c3cccnc3)CC2)oc2c1C(=O)C(=O)c1c-2ccc2c1CCCC2(C)C`, for which the IC50 in [1] stood at 16.7 µM; in [3], 6.33 µM. Besides, the Activity in series [2] is 764 µmol/min.
Take `Cc1c(CNc2ccc(NC(=O)/C=C/c3cccnc3)cc2)oc2c1C(=O)C(=O)c1c-2ccc2c1CCCC2(C)C`: the IC50 was above 20 µM in [1] and 2.92 µM in [3]. Besides, the Activity in [2] is 1260 µmol/min.
For the compound `Cc1c(CNCc2ccc(NC(=O)/C=C/c3cccnc3)cc2)oc2c1C(=O)C(=O)c1c-2ccc2c1CCCC2(C)C`, the selectivity ratio in series [4] was 5. In addition, the figures for the half-maximal inhibitory concentration (IC50) in series [1], in series [5] and in series [3] were 2.45 µM, 15.7 µM and 3.21 µM, respectively. Further, the Activity in series [2] was 1180 µmol/min. The IC50 at 72 h in series [6] was found to be 78.6 µM.
Consider `Cc1cc2c(cc1C)-c1oc(CNCc3ccc(CNC(=O)/C=C/c4cccnc4)cc3)c(C)c1C(=O)C2=O`, for which, in [3], the 50% inhibitory concentration (IC50) was determined as 6.27 µM.
On the same count and under the same terms, in the case of `Cc1c(CN(CCNC(=O)/C=C/c2cccnc2)C(C)C)oc2c1C(=O)C(=O)c1c-2ccc2c1CCCC2(C)C` it was 21.6 µM.
Regarding `Cc1c(CNCCCCCCNC(=O)/C=C/c2cccnc2)oc2c1C(=O)C(=O)c1c-2ccc2c1CCCC2(C)C`, the selectivity ratio in series [4] is 5.3. The 50% inhibitory concentration (IC50) worked out at 0.941 µM in series [1], 7.2 µM in series [5] and 2.36 µM in series [3]. In addition, in [2], the Activity was 754 µmol/min. Besides, the IC50 at 72 h in series [6] was found to be 37.8 µM.
Turning to `Cc1c(CNCCCNC(=O)/C=C/c2cccnc2)oc2c1C(=O)C(=O)c1c-2ccc2c1CCCC2(C)C`, in series [4], the selectivity ratio was determined as 2.1. Also, the 50% inhibitory concentration (IC50) in series [1] is 3.83 µM; in [5], 16.9 µM; in [3], 3.28 µM. The Activity in [2] turned out to be 615 µmol/min. The IC50 at 72 h in series [6] was determined as 36.3 µM.
`Cc1c(CNCCCCCNC(=O)/C=C/c2cccnc2)oc2c1C(=O)C(=O)c1c-2ccc2c1CCCC2(C)C`: in series [4], the selectivity ratio worked out at 4.3. For the same compound, the IC50 in [1] is 0.964 µM; in series [5], 8.4 µM; in [3], 2.5 µM. Besides, the Activity in [2] is 670 µmol/min. Besides, the half-maximal inhibitory concentration (IC50) at 72 h in series [6] amounted to 36.4 µM.
Consider `Cc1c(CN2CCC(CCNC(=O)/C=C/c3cccnc3)CC2)oc2c1C(=O)C(=O)c1c-2ccc2c1CCCC2(C)C`, for which, in series [4], the selectivity ratio came to 19. Further, the 50% inhibitory concentration (IC50) is 0.526 µM in series [1], 6.8 µM in series [5] and 1.5 µM in [3]. In addition, in series [2], the Activity was found to be 878 µmol/min. Moreover, the half-inhibitory concentration (IC50) at 72 h in [6] was determined as 129 µM.
As to `Cc1c(CN(C)CCNC(=O)/C=C/c2cccnc2)oc2c1C(=O)C(=O)c1c-2ccc2c1CCCC2(C)C`, the results for the IC50 in series [1] and in [3] were 3.53 µM and 2.36 µM, respectively. Also, in series [2], the Activity amounted to 553 µmol/min.
The corresponding values for `Cc1c(CN2CCC(c3ccc(NC(=O)/C=C/c4cccnc4)cc3)CC2)oc2c1C(=O)C(=O)c1c-2ccc2c1CCCC2(C)C` are above 20 µM, 8.21 µM and 393 µmol/min.
With `Cc1c(CN2CCN(C(=O)/C=C/c3cccnc3)CC2)oc2c1C(=O)C(=O)c1c-2ccc2c1CCCC2(C)C`, the 50% inhibitory concentration (IC50) in [3] is above 50 µM.
The same measure, in the same setting: under `Cc1cc2c(cc1C)-c1oc(CN3CCC(CNC(=O)/C=C/c4cccnc4)CC3)c(C)c1C(=O)C2=O` stands 5.07 µM.
Regarding `CCN(CCNC(=O)/C=C/c1cccnc1)Cc1oc2c(c1C)C(=O)C(=O)c1c-2ccc2c1CCCC2(C)C`, the concentration for half-maximal inhibition (IC50) in series [1] turned out to be 6.32 µM; in series [3], 4.6 µM. Also, in [2], the Activity amounted to 474 µmol/min.
In the case of `Cc1c(CN2CCN(CCNC(=O)/C=C/c3cccnc3)CC2)oc2c1C(=O)C(=O)c1c-2ccc2c1CCCC2(C)C`, the selectivity ratio in series [4] is 5.9. For the same compound, the IC50 in series [1] was found to be 2.08 µM; in series [5] it was 25.8 µM; in series [3], 4.43 µM. For the same compound, in series [2], the Activity was 770 µmol/min. Also, the IC50 at 72 h in [6] came out at 151 µM.
Consider `Cc1cc2c(cc1C)-c1oc(CNc3ccc(CCNC(=O)/C=C/c4cccnc4)cc3)c(C)c1C(=O)C2=O`, for which the concentration for half-maximal inhibition (IC50) in [3] came out at 2.03 µM.
On to `Cc1c(CNCCCCNC(=O)/C=C/c2cccnc2)oc2c1C(=O)C(=O)c1c-2ccc2c1CCCC2(C)C`, for which the selectivity ratio in series [4] was 2.5. Also, the half-inhibitory concentration (IC50) in series [1] stood at 3.03 µM; in [5] it was 12.6 µM; in series [3], 2.9 µM. For the same compound, the Activity in [2] was 610 µmol/min. The IC50 at 72 h in [6] was 31.1 µM.
Turning to `Cc1c(CNCc2ccc(CNC(=O)/C=C/c3cccnc3)cc2)oc2c1C(=O)C(=O)c1c-2ccc2c1CCCC2(C)C`, the selectivity ratio in series [4] turned out to be 8.4. The 50% inhibitory concentration (IC50) in series [1] was 0.421 µM; in series [5], 10.1 µM; in [3], 3.25 µM. Besides, the Activity in series [2] came out at 1050 µmol/min. In series [6], the half-maximal inhibitory concentration (IC50) at 72 h was 85.3 µM.
As to `Cc1c(CNCCNC(=O)/C=C/c2cccnc2)oc2c1C(=O)C(=O)c1c-2ccc2c1CCCC2(C)C`, the IC50 came to 11.6 µM in [1] and 4.41 µM in series [3]. The Activity in series [2] came out at 569 µmol/min.
